Some test systems named below: 786-0 renal; CCRF-CEM leukemia; HCT-15 colon; HT29 colon; OVCAR-3 ovarian; EKVX NSCLC; HOP-92 NSCLC; NCI-H522 lung.
Holding throughout (experiment): NCI anticancer screen, dose series, 48 h

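A five-concentration, 48-hour dose response in 96-well plates underlies each endpoint, interpolated linearly between surrounding concentrations. TGI denotes the concentration required for complete inhibition of growth.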 Where only a bound is given, the exact number is not on record here.

`Cc1ccc(C2=NO[C@@H]3C(=O)N(c4ccc(Cc5ccc(N6C(=O)[C@H]7C(c8ccc(C)cc8)=NO[C@H]7C6=O)cc5)cc4)C(=O)[C@H]23)cc1`: the TGI with 786-0 renal, in the test with CCRF-CEM leukemia, with HCT-15 colon, in the test on HT29 colon, in the test on OVCAR-3 ovarian and with EKVX NSCLC was greater than 100 µM each time. In the test with HOP-92 NSCLC, this compound gave a TGI greater than 100 µM.

For the compound `Cc1ccc2[nH]c(=O)c(C(C#N)c3ccccc3)nc2c1` (stereo not drawn), the TGI is greater than 100 µM in the test on 786-0 renal; greater than 100 µM in the test with CCRF-CEM leukemia; greater than 100 µM in the test on HCT-15 colon; greater than 100 µM in the test with HT29 colon; greater than 100 µM with OVCAR-3 ovarian; 84 µM in the test on EKVX NSCLC. Also, the TGI worked out at 70.7 µM in the test with NCI-H522 lung and 93.8 µM in the test with HOP-92 NSCLC.

As for `O=C(NCC#CCO)C(F)(F)F`, the TGI in the test on 786-0 renal, with HCT-15 colon, in the test with HT29 colon, with EKVX NSCLC and in the test with NCI-H522 lung was greater than 100 µM throughout.

For the compound `CCC(=C(c1ccc(OCc2ccccc2)cc1)c1ccc(OCc2ccccc2)cc1)c1ccc(OC)cc1`, the TGI in the test with 786-0 renal, with CCRF-CEM leukemia, in the test with HCT-15 colon, with HT29 colon, in the test with OVCAR-3 ovarian and in the test with EKVX NSCLC was greater than 100 µM each time. For the same compound, the TGI with NCI-H522 lung and in the test with HOP-92 NSCLC was greater than 100 µM in each case.

Consider `CCOC(=O)C1=C(C)N(NC(=O)c2ccccc2)C2(O)CCCC12C(=O)OCC` (stereo not drawn), for which the TGI in the test on 786-0 renal, in the test with HCT-15 colon, in the test with HT29 colon, with OVCAR-3 ovarian, in the test on EKVX NSCLC and in the test on NCI-H522 lung was greater than 100 µM in each case.

Regarding `Cc1cc(C)n(-c2c(O)ccc(O)c2-n2nc(C)cc2C)n1`, the TGI in the test on 786-0 renal, with CCRF-CEM leukemia, in the test with HCT-15 colon, with HT29 colon, with OVCAR-3 ovarian and in the test on EKVX NSCLC was greater than 100 µM each time. The TGI with NCI-H522 lung and in the test with HOP-92 NSCLC was greater than 100 µM in each case.

As to `COc1ccc2c(c1)[n+]([O-])c(-c1nc3ccccc3s1)c(N)[n+]2[O-]`, the TGI with 786-0 renal, in the test with HCT-15 colon, in the test with HT29 colon, with OVCAR-3 ovarian, in the test with EKVX NSCLC and in the test with NCI-H522 lung was greater than 100 µM in each case. This compound also registered a TGI with HOP-92 NSCLC greater than 100 µM.

With `CC1C2=CC=C(O2)C(C)(C)C2=CC=C(O2)C(C)(C)C2=CC=C(O2)C(C)(C)C2=CC=C1O2`, the TGI in the test with 786-0 renal, in the test on CCRF-CEM leukemia, in the test with HCT-15 colon, with HT29 colon, in the test with EKVX NSCLC and with NCI-H522 lung was greater than 100 µM in each case. Further, the TGI with HOP-92 NSCLC was greater than 100 µM.

Regarding `O=C(O)/C(Cl)=C(\Cl)C(=O)Nc1ccccc1`, the TGI with 786-0 renal, in the test with CCRF-CEM leukemia, in the test on HCT-15 colon, in the test on HT29 colon, in the test on OVCAR-3 ovarian and in the test on EKVX NSCLC was greater than 100 µM each time. Besides, the TGI in the test with HOP-92 NSCLC is greater than 100 µM.

Consider `CSC(=S)NNC(=O)c1ccncc1`, for which the TGI was 30.8 µM in the test with 786-0 renal; 43.1 µM with CCRF-CEM leukemia; 28.3 µM in the test on HCT-15 colon; 37.8 µM with HT29 colon; 51.3 µM in the test on OVCAR-3 ovarian; 57.6 µM in the test on EKVX NSCLC. For the same compound, the values for the TGI in the test with NCI-H522 lung and in the test with HOP-92 NSCLC were 31.4 µM and 60.8 µM, respectively.

In the case of `COC(=O)C1=CC2OC1(C)C1(CC1)C2=O` (stereo not drawn), the TGI came to 31.8 µM in the test with 786-0 renal; 23.2 µM in the test with CCRF-CEM leukemia; 40 µM in the test with HCT-15 colon; 25.5 µM with HT29 colon; 31.2 µM in the test on OVCAR-3 ovarian; 29 µM with EKVX NSCLC. In addition, the TGI in the test on NCI-H522 lung came to 20.7 µM.

`Nc1nc(N)c(-c2ccc(Cl)cc2)c(CCC(=O)Nc2cccc(C(F)(F)F)c2)n1`: the TGI in the test on 786-0 renal, in the test on CCRF-CEM leukemia, with HCT-15 colon, in the test on HT29 colon, in the test on OVCAR-3 ovarian and with EKVX NSCLC was greater than 100 µM each time. For the same compound, the TGI in the test on NCI-H522 lung was greater than 100 µM.

Consider `COC(=O)C1C(=O)O[C@@H](c2ccc(OC)cc2OC)C1C(=O)OC` (stereo partly drawn), for which the TGI in the test on 786-0 renal, with CCRF-CEM leukemia, in the test with HCT-15 colon, in the test with HT29 colon, with OVCAR-3 ovarian and in the test with EKVX NSCLC was greater than 100 µM throughout. In the test with HOP-92 NSCLC, this compound gave a TGI greater than 100 µM.

For the compound `CC1OC(O)CC(OC(=O)c2ccccc2)C1OC(=O)c1ccccc1` (stereo not drawn), the TGI with 786-0 renal was 82.7 µM; in the test with CCRF-CEM leukemia it was 38.2 µM; in the test with HCT-15 colon it was 29.3 µM; in the test with HT29 colon, 42.2 µM; in the test on OVCAR-3 ovarian it was 33.4 µM; in the test with NCI-H522 lung it was greater than 100 µM. The compound also yielded a TGI in the test with HOP-92 NSCLC of 35 µM.

`Cn1c2cccc3nnc4cccc(c4c32)n1C`: the TGI with 786-0 renal, with CCRF-CEM leukemia, with HCT-15 colon, in the test with HT29 colon, in the test on OVCAR-3 ovarian and in the test with EKVX NSCLC was greater than 100 µM throughout. For the same compound, in the test on HOP-92 NSCLC, the TGI is greater than 100 µM.

For the compound `C=CCN(N=O)C(=O)N(CCC)CCCCC(NC(C)=O)C(=O)NCc1ccccc1` (stereo not drawn), the TGI in the test with 786-0 renal was greater than 100 µM; in the test with CCRF-CEM leukemia it was greater than 100 µM; in the test with HCT-15 colon, greater than 100 µM; with HT29 colon, 83.6 µM; in the test on OVCAR-3 ovarian it was greater than 100 µM; with EKVX NSCLC, greater than 100 µM. Further, the TGI in the test on NCI-H522 lung and in the test on HOP-92 NSCLC was greater than 100 µM in each case.

Turning to `COC(=O)C1=CC2OC13CC1CCC3(C2=O)C1(C)C` (stereo not drawn), the TGI was determined as 30.7 µM in the test with 786-0 renal; 14.6 µM in the test with CCRF-CEM leukemia; 18.9 µM in the test with HCT-15 colon; 27.7 µM with HT29 colon; 20 µM with OVCAR-3 ovarian; 9.37 µM with NCI-H522 lung.

Regarding `CCN(CC)c1ccc2c(c1)N=C1N=CC=CN1C2(c1ccc(N(C)C)cc1)c1ccc(N(C)C)cc1`, the TGI in the test on 786-0 renal was determined as 24.1 µM; in the test on CCRF-CEM leukemia it was 23.5 µM; in the test with HCT-15 colon, 28.1 µM; in the test on HT29 colon, 10.6 µM; in the test with OVCAR-3 ovarian, 6.54 µM; in the test on EKVX NSCLC, 23.8 µM. Moreover, the TGI in the test on NCI-H522 lung worked out at 5.12 µM; in the test on HOP-92 NSCLC it was 8.6 µM.

In the case of `COc1ccccc1NC(=O)C1=C(C)NC(C)=C(C(=O)Nc2ccccc2OC)C1c1ccccc1OC`, the TGI in the test on 786-0 renal, with CCRF-CEM leukemia, in the test on HCT-15 colon, in the test on HT29 colon, in the test on OVCAR-3 ovarian and in the test with EKVX NSCLC was greater than 100 µM in each case. In addition, the TGI with NCI-H522 lung and in the test with HOP-92 NSCLC was greater than 100 µM in each case.

As for `CC(=O)Nc1ccc(/C=C/C(=O)c2sc(C(N)=S)nc2C)cc1`, the TGI in the test on 786-0 renal, in the test with CCRF-CEM leukemia, in the test on HCT-15 colon, with HT29 colon, with OVCAR-3 ovarian and in the test with EKVX NSCLC was greater than 100 µM throughout. Moreover, the TGI in the test with NCI-H522 lung and in the test on HOP-92 NSCLC was greater than 100 µM in each case.

In the case of `COC(=O)C(=O)C(C(=O)C(=O)Nc1cc([N+](=O)[O-])ccc1[N+](=O)[O-])c1nc2ccc(C(=O)c3ccccc3)cc2[nH]c1=O` (stereo not drawn), the TGI is greater than 100 µM in the test with 786-0 renal; 83.4 µM with CCRF-CEM leukemia; greater than 100 µM in the test on HCT-15 colon; greater than 100 µM in the test with HT29 colon; greater than 100 µM in the test on OVCAR-3 ovarian; greater than 100 µM with EKVX NSCLC. This compound also registered a TGI in the test on NCI-H522 lung of 70.6 µM.

For `O=C(C=Nc1ccccc1C(=O)[O-])c1cccs1.O=C(C=Nc1ccccc1C(=O)[O-])c1cccs1.[Cu+2]`, the TGI in the test with 786-0 renal was greater than 100 µM; with CCRF-CEM leukemia, greater than 10 µM; in the test on HCT-15 colon, greater than 100 µM; in the test with HT29 colon, greater than 100 µM; in the test on OVCAR-3 ovarian, greater than 100 µM; in the test with NCI-H522 lung, greater than 100 µM. In addition, the TGI in the test on HOP-92 NSCLC is greater than 100 µM.

In the case of `CC12CC3CC(C)(C1)CC(N=[N+]=[N-])(C3)C2`, the TGI in the test with 786-0 renal, in the test on CCRF-CEM leukemia, in the test on HT29 colon, in the test with OVCAR-3 ovarian, in the test on EKVX NSCLC and with NCI-H522 lung was greater than 100 µM throughout. In addition, the TGI in the test on HOP-92 NSCLC was greater than 100 µM.

Turning to `O=C(CC(=O)C(F)(F)F)c1csc2ccccc12`, the TGI in the test with 786-0 renal, with CCRF-CEM leukemia, in the test with HCT-15 colon, with OVCAR-3 ovarian, with EKVX NSCLC and in the test on NCI-H522 lung was greater than 100 µM throughout.

Regarding `CCOC(=O)/C=C1\Nc2ccccc2-n2nnnc21`, the TGI in the test on 786-0 renal, in the test on CCRF-CEM leukemia, with HCT-15 colon, with HT29 colon, in the test on OVCAR-3 ovarian and in the test with EKVX NSCLC was greater than 100 µM each time. This compound came in with a TGI with HOP-92 NSCLC greater than 100 µM.

In the case of `CC1C(=O)N(C)C2(CO)C(=O)O[C@H](C)C12O` (stereo partly drawn), the TGI with 786-0 renal, in the test on HCT-15 colon, in the test on HT29 colon, with OVCAR-3 ovarian and with EKVX NSCLC was greater than 100 µM in each case.

The record behind these values is PubChem BioAssay (NCI).
